# Reference: ChEMBL document CHEMBL3784969, “Pharmacokinetics of flutamide in patients with renal insufficiency” (Br J Clin Pharmacol, 1999)
# Experiment: Plasma protein binding in healthy geriatric volunteer by equilibrium dialysis method
# Format: ADME, cell-free
# Conditions: human, read-out: PPB
compound,measurement,value
CC(C)(O)C(=O)Nc1ccc([N+](=O)[O-])c(C(F)(F)F)c1 [HYDROXYFLUTAMIDE],fraction unbound,< 0.06
